# According to ChEMBL document CHEMBL5390237, “Discovery of Selective Histone Deacetylase 1 and 2 Inhibitors: Screening of a Focused Library Constructed by Click Chemistry, Kinetic Binding Analysis, and Biological Evaluation” (J Med Chem, 2023):
# Biological target: T1, Histone deacetylase 2 (Homo sapiens, UniProt Q92769)
# Details: Sf9, time 60.0 min
# T1 sequence (Q92769 whole entry): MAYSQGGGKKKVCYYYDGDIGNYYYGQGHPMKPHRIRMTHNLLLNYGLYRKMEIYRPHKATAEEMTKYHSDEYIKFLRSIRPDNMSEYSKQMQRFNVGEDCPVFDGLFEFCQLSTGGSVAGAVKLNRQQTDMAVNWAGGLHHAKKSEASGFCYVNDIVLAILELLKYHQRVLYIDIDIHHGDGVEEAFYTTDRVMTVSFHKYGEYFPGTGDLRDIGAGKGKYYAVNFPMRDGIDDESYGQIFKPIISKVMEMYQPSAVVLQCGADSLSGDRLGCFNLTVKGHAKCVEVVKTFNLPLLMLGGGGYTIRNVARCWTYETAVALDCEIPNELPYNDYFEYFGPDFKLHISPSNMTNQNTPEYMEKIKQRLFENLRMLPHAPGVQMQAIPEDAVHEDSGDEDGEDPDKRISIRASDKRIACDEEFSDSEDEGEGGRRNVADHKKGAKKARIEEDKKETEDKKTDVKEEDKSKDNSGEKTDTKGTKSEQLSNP
row,ka,SMILES
1,13300 M⁻¹ s⁻¹,CC(=O)Nc1ccc(C(=O)Nc2cc(-c3cccs3)ccc2N)cc1
2,7670 M⁻¹ s⁻¹,Nc1ccccc1NC(=O)c1ccc(CNC(=O)OCc2cccnc2)cc1

# Biological target: T1, Histone deacetylase 2
# Experiment: Inhibition of full-length recombinant human C-terminal GST tagged HDAC2 expressed in Sf9 insect cells using aminoluciferin peptide substrate at 100 nM preincubated for 3 hrs followed by substrate addition and measured after 30 mins by HDAC-Glo I/II chemiluminescence assay
# Details: time 3.5 hrs
row,SMILES,inhibition
1,Cc1ccc(CCn2cc(CCC(=O)Nc3cc(-c4ccc(F)cc4)ccc3N)nn2)cc1,25%
2,Nc1ccc(-c2ccc(F)cc2)cc1NC(=O)CCc1cn(-c2ccccc2-c2ccccc2)nn1,8%
3,Nc1ccc(-c2ccsc2)cc1NC(=O)c1cn(Cc2nc3ccccc3[nH]2)nn1,25%
4,Nc1ccc(-c2ccccc2)cc1NC(=O)c1cn(/C=C/c2ccccc2)nn1,3%
5,Nc1ccc(-c2ccsc2)cc1NC(=O)CCc1cn(CCCCCc2ccccc2)nn1,5%
6,Nc1ccc(-c2ccc(F)cc2)cc1NC(=O)CCc1cn(CCCCC(=O)O)nn1,0%
7,Cc1cccc(CCn2cc(CCC(=O)Nc3cc(-c4ccc(F)cc4)ccc3N)nn2)c1,36%
8,Nc1ccc(-c2ccc(F)cc2)cc1NC(=O)CCc1cn(CCc2cccc(F)c2)nn1,15%
9,Nc1ccc(-c2ccc(F)cc2)cc1NC(=O)c1cn(CCc2cccc(C(F)(F)F)c2)nn1,0%
10,Nc1ccc(-c2ccc(F)cc2)cc1NC(=O)CCc1cn(-c2ccc(I)cc2)nn1,0%
11,Nc1ccc(-c2ccc(F)cc2)cc1NC(=O)c1cn(-c2ccccc2-c2ccccc2)nn1,19%
12,Nc1ccc(-c2ccc(F)cc2)cc1NC(=O)c1cn(CCc2ccccn2)nn1,16%
13,Nc1ccc(-c2cccs2)cc1NC(=O)c1cn(CS(=O)(=O)c2ccccc2)nn1,17%
14,Nc1ccc(-c2ccsc2)cc1NC(=O)CCc1cn(CCc2ccc(C(F)(F)F)cc2)nn1,2%
15,Nc1ccc(-c2ccccc2)cc1NC(=O)CCc1cn(/C=C/c2ccccc2)nn1,15%
16,Nc1ccc(-c2ccsc2)cc1NC(=O)CCc1cn(CCc2cccc([N+](=O)[O-])c2)nn1,36%
17,Nc1ccc(-c2cccs2)cc1NC(=O)CCc1cn(Cc2ccc(C(=O)O)cc2)nn1,31%
18,Nc1ccc(-c2cccs2)cc1NC(=O)CCc1cn(CCc2ccsc2)nn1,13%
19,Nc1ccc(-c2ccsc2)cc1NC(=O)c1cn(CC(=O)c2ccccc2)nn1,0%
20,Nc1ccc(-c2ccccc2)cc1NC(=O)c1cn(CCc2cccc(C(F)(F)F)c2)nn1,0%

row,SMILES,inhibition
1,Nc1ccc(-c2ccccc2)cc1NC(=O)CCc1cn(-c2ccc(I)cc2)nn1,0%
2,Nc1ccc(-c2ccc(F)cc2)cc1NC(=O)CCc1cn(CCc2ccccc2)nn1,37%
3,Nc1ccc(-c2cccnc2)cc1NC(=O)CCc1cn(Cc2ccc(OC(F)(F)F)cc2)nn1,3%
4,Nc1ccc(-c2ccsc2)cc1NC(=O)CCc1cn(Cc2cccc(C(=O)O)c2)nn1,0%
5,Nc1ccc(-c2ccccc2)cc1NC(=O)CCc1cn(CS(=O)(=O)c2ccccc2)nn1,9%
6,Nc1ccc(-c2ccsc2)cc1NC(=O)CCc1cn(CCc2cccc(F)c2)nn1,21%
7,Nc1ccc(-c2ccccc2)cc1NC(=O)c1cn(CCc2ccccc2C(F)(F)F)nn1,0%
8,Nc1ccc(-c2ccsc2)cc1NC(=O)c1cn(CCc2ccc([N+](=O)[O-])cc2)nn1,0%
9,Nc1ccc(-c2ccccc2)cc1NC(=O)c1cn(C[S+]([O-])c2ccccc2)nn1 (stereo unspecified),0%
10,Nc1ccc(-c2ccccc2)cc1NC(=O)CCc1cn(Cc2ccc(Oc3ccccc3)cc2)nn1,0%
11,Nc1ccc(-c2ccsc2)cc1NC(=O)c1cn(Cc2ccc3ccccc3c2)nn1,3%
12,Cc1csc(CCn2cc(C(=O)Nc3cc(-c4ccccc4)ccc3N)nn2)n1,0%
13,COc1ccc(Cn2cc(CCC(=O)Nc3cc(-c4ccsc4)ccc3N)nn2)cc1,24%
14,Nc1ccc(-n2cc(CCC(=O)Nc3cc(-c4cccs4)ccc3N)nn2)cc1,25%
15,Nc1ccc(-c2ccsc2)cc1NC(=O)CCc1cn(CCc2ccc(F)cc2)nn1,21%
16,Nc1ccc(-c2ccsc2)cc1NC(=O)CCc1cn(CCc2ccccc2C(F)(F)F)nn1,0%
17,Nc1ccc(-c2ccccc2)cc1NC(=O)c1cn(-c2cccc3ccccc23)nn1,0%
18,Nc1ccc(-c2cccnc2)cc1NC(=O)CCc1cn(CCC2CCCCC2)nn1,5%
19,Nc1ccc(-c2cccs2)cc1NC(=O)c1cn(CC2CCCCC2)nn1,1%

# Second part, the compound after the results:
row,inhibition,SMILES
1,10%,COc1ccccc1CCn1cc(CCC(=O)Nc2cc(-c3cccnc3)ccc2N)nn1
2,0%,Nc1ccc(-c2cccs2)cc1NC(=O)c1ccc(-c2cn(-c3cccc4ccccc34)nn2)cc1
3,14%,Nc1ccc(-c2cccs2)cc1NC(=O)c1cccc(-c2cn(CCc3ccc(C(=O)O)cc3)nn2)c1
4,0%,Nc1ccc(-c2ccc(F)cc2)cc1NC(=O)c1cn(CCc2cccc3ccccc23)nn1
5,12%,Nc1ccc(-c2cccs2)cc1NC(=O)c1cn(Cc2ccc3ccccc3n2)nn1
6,4%,COc1ccc(Cn2cc(-c3ccc(C(=O)Nc4cc(-c5cccs5)ccc4N)cc3)nn2)cc1
7,14%,COc1ccc(-n2cc(-c3cccc(C(=O)Nc4cc(-c5cccs5)ccc4N)c3)nn2)cc1
8,0%,Nc1ccc(-c2cccs2)cc1NC(=O)c1cccc(-c2cn(Cc3cc4ccccc4s3)nn2)c1
9,0%,Nc1ccc(-c2ccc(F)cc2)cc1NC(=O)c1cn(CCc2ccccc2C(F)(F)F)nn1
10,0%,Nc1ccc(-c2cccs2)cc1NC(=O)c1ccc(-c2cn(CCCCCCCC(=O)O)nn2)cc1
11,55%,Nc1ccc(-c2cccs2)cc1NC(=O)c1cccc(-c2cn(Cc3ccc(C(=O)O)cc3)nn2)c1
12,0%,Nc1ccc(-c2ccsc2)cc1NC(=O)c1cn(CCc2ccccc2Cl)nn1
13,0%,Nc1ccc(-c2cccs2)cc1NC(=O)c1cn(CCc2ccc(Cl)cc2)nn1
14,0%,Nc1ccc(-c2cccs2)cc1NC(=O)c1cccc(-c2cn(-c3ccc(Br)cc3)nn2)c1
15,2%,Cc1ccc(CCn2cc(C(=O)Nc3cc(-c4ccccc4)ccc3N)nn2)cc1
16,0%,Nc1ccc(-c2cccs2)cc1NC(=O)c1cn(Cc2ccc(Oc3ccccc3)cc2)nn1
17,29%,COc1ccccc1CCn1cc(-c2ccc(C(=O)Nc3cc(-c4cccs4)ccc3N)cc2)nn1
18,0%,Cc1ccc(-n2cc(-c3ccc(C(=O)Nc4cc(-c5cccs5)ccc4N)cc3)nn2)cc1C
19,6%,Nc1ccc(-c2cccs2)cc1NC(=O)CCc1cn(Cc2ccc(Oc3ccccc3)cc2)nn1
20,32%,Nc1ccc(-c2cccs2)cc1NC(=O)c1ccc(-c2cn(CCN3CCc4ccccc4C3)nn2)s1
21,19%,Nc1ccc(-c2cccs2)cc1NC(=O)c1cn(CCc2ccccc2[N+](=O)[O-])nn1
22,5%,Nc1ccc(-c2cccs2)cc1NC(=O)c1cccc(-c2cn(-c3ccc([N+](=O)[O-])cc3)nn2)c1
23,0%,Nc1ccc(-c2cccs2)cc1NC(=O)c1cccc(-c2cn(CCc3cccc(F)c3)nn2)c1

# Biological target: T1, Histone deacetylase 2
# Details: Sf9, time 60.0 min
# Remark: another data set of the same source
row,Kdiss,SMILES
1,6.67e-05 s⁻¹,CC(=O)Nc1ccc(C(=O)Nc2cc(-c3cccs3)ccc2N)cc1
2,5e-05 s⁻¹,Nc1ccccc1NC(=O)c1ccc(CNC(=O)OCc2cccnc2)cc1
